As a reminder, the Ki is the dissociation constant of the complex between target and ligand, obtained from inhibition or displacement. Broadly, the IC50 is the point on the concentration scale where inhibition reaches its midpoint. One may read the inhibition as the percentage by which the read-out fell short of the control. One may read the MTD as the highest dose tested that stayed within the study's limit of toxicity.

This is an account of results in ChEMBL document CHEMBL5150074, “Structure-Based Design of a Dual-Targeted Covalent Inhibitor Against Papain-like and Main Proteases of SARS-CoV-2” (J Med Chem, 2022).

Structures are written as SMILES. Active and inactive are the calls of the source. The rule behind the calls is not given here.

In series [1] the target is T1, Replicase polyprotein 1ab (Severe acute respiratory syndrome coronavirus 2, UniProt P0DTD1). The experiment in a line: Inhibition of SARS-CoV2 main protease.
For series [2], the target named is T1, Replicase polyprotein 1ab. Description: Inhibition of SARS-CoV-2 MPro expressed in Escherichia coli BL21(DE3) using Dabcyl-KLSAVLQSGERKM-Edans as substrate incubated for 30 mins followed by substrate addition by FRET assay.
Series [3] can be described thus: Acute toxicity in overnight fasted Kunming mouse assessed as signs of abnormality at 1310 mg/kg, iv measured after 15 days. The class given is organism-based. The following applies: in vivo, 360 h, time 15 day.
Series [4] is described as follows: Solubility of compound in saline at higher dose. The format is physicochemical. The following applies: buffer.
A short description of series [5]: Acute toxicity in iv dosed overnight fasted Kunming mouse assessed as minimum lethal dose measured after 15 days. The format is organism-based. The following applies: in vivo, 360 h, time 15 day.
Series [6] deals with Replicase polyprotein 1ab (Severe acute respiratory syndrome coronavirus 2) (UniProt P0DTD1). Description: Inhibition of SARS-CoV-2 MPro expressed in Escherichia coli BL21(DE3) using Dabcyl-KLSAVLQSGERKM-Edans as substrate assessed as inactivation constant measured for 30 mins by fluorimetry based microplate reader analysis.
The target in series [7] is Serine/threonine-protein kinase PAK 2 (Homo sapiens) (UniProt Q13177). The experiment in a line: Inhibition of human PAK2 at 1 uM by DiscoverX KINOMEscan assay relative to control.
Sequence of Serine/threonine-protein kinase PAK 2 (Homo sapiens) (Q13177 whole entry): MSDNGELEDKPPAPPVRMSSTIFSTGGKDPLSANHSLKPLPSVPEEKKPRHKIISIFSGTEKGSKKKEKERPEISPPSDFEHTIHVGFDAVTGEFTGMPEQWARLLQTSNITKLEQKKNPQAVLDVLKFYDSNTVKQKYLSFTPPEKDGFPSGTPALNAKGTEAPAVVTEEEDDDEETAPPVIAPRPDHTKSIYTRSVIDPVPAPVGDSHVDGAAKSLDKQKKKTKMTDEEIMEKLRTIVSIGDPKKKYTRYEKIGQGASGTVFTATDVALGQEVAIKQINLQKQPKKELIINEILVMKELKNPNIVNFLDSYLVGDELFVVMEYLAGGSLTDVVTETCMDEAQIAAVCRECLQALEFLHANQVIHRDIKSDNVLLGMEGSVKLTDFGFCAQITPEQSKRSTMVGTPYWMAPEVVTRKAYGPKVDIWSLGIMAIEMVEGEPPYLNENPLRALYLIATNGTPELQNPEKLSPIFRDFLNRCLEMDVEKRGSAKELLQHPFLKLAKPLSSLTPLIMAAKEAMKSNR
In series [8] the target is T2, Procathepsin L (Homo sapiens, UniProt P07711). Description: Irreversible inhibition of human Cathepsin L using Z-Leu-Arg-AMC as substrate at 300 nM incubated for 5 hrs followed by 100 fold dilution and incubated for 5 min and further incubated with substrate by fluorescence based analysis. The following applies: time 305.0 min.
Target sequence in this assay (P07711 114-333 limits assumed): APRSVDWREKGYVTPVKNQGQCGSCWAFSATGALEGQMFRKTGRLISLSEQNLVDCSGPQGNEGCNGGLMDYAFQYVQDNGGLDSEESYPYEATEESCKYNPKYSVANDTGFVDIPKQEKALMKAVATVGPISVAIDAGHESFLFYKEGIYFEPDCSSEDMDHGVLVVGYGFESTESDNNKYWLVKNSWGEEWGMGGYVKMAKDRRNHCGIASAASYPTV
Series [9] in a line: Acute toxicity in overnight fasted Kunming mouse assessed as toxic signs at 1050 mg/kg, iv measured after 15 days. The format is organism-based. The following applies: in vivo, 360 h, time 15 day.
Series [10] can be described thus: Acute toxicity in Sprague-Dawley rat assessed as cellular swelling in hepatocytes at 300 mg/kg, po administered via gavage for 4 weeks. The class given is organism-based. The following applies: in vivo, 672 h.
The target of series [11] is Replicase polyprotein 1ab (Severe acute respiratory syndrome coronavirus 2) (UniProt P0DTD1). Description: Binding affinity to SARS-CoV-2 PLpro expressed in Escherichia coli BL21(DE3) assessed as mass shift at 30 uM incubated for 4 hrs by mass spectrometry analysis.
Series [12] deals with T2, Procathepsin L. Description: Inhibition of human Cathepsin L using Z-Leu-Arg-AMC as substrate incubated for 30 mins followed by substrate addition by fluorescence based analysis.
Target sequence in this assay (P07711 whole entry): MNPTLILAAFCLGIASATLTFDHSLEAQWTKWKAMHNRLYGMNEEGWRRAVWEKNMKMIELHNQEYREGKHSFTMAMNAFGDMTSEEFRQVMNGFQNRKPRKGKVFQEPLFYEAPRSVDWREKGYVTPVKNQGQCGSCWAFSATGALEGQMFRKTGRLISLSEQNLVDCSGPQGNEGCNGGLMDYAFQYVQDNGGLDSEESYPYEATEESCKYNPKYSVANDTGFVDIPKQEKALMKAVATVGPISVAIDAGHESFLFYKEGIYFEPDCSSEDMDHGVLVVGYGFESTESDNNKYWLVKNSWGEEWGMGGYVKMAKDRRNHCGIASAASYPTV
The target in series [13] is Replicase polyprotein 1ab (Severe acute respiratory syndrome coronavirus 2) (UniProt P0DTD1). The experiment in a line: Covalent binding affinity to Cys145 residue of SARS-CoV-2 MPro expressed in Escherichia coli BL21(DE3) assessed as trypsin digestion mediated mass shift by mass spectrometry analysis.
A short description of series [14]: Acute toxicity in Sprague-Dawley rat assessed as cellular swelling in hepatocytes at 300 mg/kg, po administered via gavage for 4 weeks followed by recovery for 4 weeks. The following applies: in vivo, 1344 h, time 8 weeks. The format is organism-based.
The nature of series [15]: Acute toxicity in overnight fasted Kunming mouse assessed as animal death at 1050 mg/kg, iv measured after 15 days. The class given is organism-based. The following applies: in vivo, 360 h, time 15 day.
In series [16] the target is Replicase polyprotein 1ab (Severe acute respiratory syndrome coronavirus 2) (UniProt P0DTD1). The experiment in a line: Inhibition of SARS-CoV-2 PLpro expressed in Escherichia coli BL21(DE3) using CBZ-RLRGG-AMC as substrate at 5 uM incubated for 30 mins followed by substrate addition by FRET assay.
Series [17] addresses T1, Replicase polyprotein 1ab. Description: Inhibition of SARS-CoV-2 PLpro expressed in Escherichia coli BL21(DE3) using CBZ-RLRGG-AMC as substrate assessed as inhibition constant measured for 30 mins by fluorimetry based microplate reader analysis.
Series [18] deals with T3, Cathepsin B (Homo sapiens, UniProt P07858). The experiment in a line: Inhibition of His-tagged recombinant human Cathepsin B expressed in HEK293 cells using Z-Leu-Arg-AMC as substrate incubated for 30 mins followed by substrate addition by fluorescence based analysis.
For series [19], the system named is SARS-CoV-2. The experiment in a line: Antiviral activity against SARS-CoV-2 infected in Vero E6 cells assessed as reduction in viral RdRP RNA levels at 15 uM measured after 48 hrs by qRT-PCR analysis. Further details: scale not given: the % may be the effect or the level left. The class given is functional, Severe acute respiratory syndrome coronavirus 2. For orientation: Quantitative PCR measures a nucleic acid by following its amplification.

The nature of series [20]: Acute toxicity in Sprague-Dawley rat assessed as reduction in body weight at upto 300 mg/kg, po administered via gavage for 4 weeks followed by recovery for 4 weeks. The format is organism-based. The following applies: in vivo, 1344 h, time 8 weeks.
Series [21] deals with SARS-CoV-2. The experiment in a line: Antiviral activity against SARS-CoV-2 infected in Vero E6 cells assessed as reduction in viral nucleoprotein levels at 5 uM pretreated with Vero E6 cells for 1 hr followed by viral infection and further incubated for 1 followed by compound washout and measured after 48 hrs by Hoechst 33258 staining based fluorescence microscopy analysis. The format is functional, organism-based. The following applies: Severe acute respiratory syndrome coronavirus 2, time 2.0 hrs.

Series [22] is described as follows: Acute toxicity in overnight fasted Kunming mouse assessed as reduction in body weight at 1049 to 4000 mg/kg, iv measured after 15 days. The class given is organism-based. The following applies: in vivo, 360 h, dose 1049-4000 mg/kg, time 15 day.
A short description of series [23]: Acute toxicity in Sprague-Dawley rat assessed as effect on food consumption at upto 300 mg/kg, po administered via gavage for 4 weeks followed by recovery for 4 weeks. The following applies: in vivo, 1344 h, time 8 weeks. The class given is organism-based.
In series [24] the target is Serine/threonine-protein kinase pim-1 (Homo sapiens) (UniProt P11309). Description: Inhibition of human PIM1 at 1 uM by DiscoverX KINOMEscan assay relative to control.
Sequence of Serine/threonine-protein kinase pim-1 (Homo sapiens) (P11309 whole entry, looked up): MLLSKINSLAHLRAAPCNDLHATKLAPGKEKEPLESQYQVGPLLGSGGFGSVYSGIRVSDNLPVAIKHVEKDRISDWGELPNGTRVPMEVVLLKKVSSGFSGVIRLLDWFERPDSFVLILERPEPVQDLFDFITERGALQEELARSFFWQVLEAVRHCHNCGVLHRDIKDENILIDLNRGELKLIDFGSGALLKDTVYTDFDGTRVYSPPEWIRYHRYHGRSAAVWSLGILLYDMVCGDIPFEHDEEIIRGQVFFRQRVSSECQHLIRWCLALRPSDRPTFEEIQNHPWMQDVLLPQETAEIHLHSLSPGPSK
Series [25] deals with T1, Replicase polyprotein 1ab. The experiment in a line: Inhibition of SARS-CoV-2 MPro expressed in Escherichia coli BL21(DE3) using Dabcyl-KLSAVLQSGERKM-Edans as substrate assessed as inhibition constant measured for 30 mins by fluorimetry based microplate reader analysis.
The target of series [26] is Replicase polyprotein 1ab (Severe acute respiratory syndrome coronavirus 2) (UniProt P0DTD1). The experiment in a line: Inhibition of SARS-CoV-2 MPro expressed in Escherichia coli BL21(DE3) using Dabcyl-KLSAVLQSGERKM-Edans as substrate at 5 uM incubated for 30 mins followed by substrate addition by FRET assay.
A short description of series [27]: Toxicity in overnight fasted Kunming mouse assessed as animal death at 400 mg/kg, iv measured after 15 days. The class given is organism-based. The following applies: in vivo, 360 h, time 15 day.
Series [28] concerns the target Replicase polyprotein 1ab (Severe acute respiratory syndrome coronavirus 2) (UniProt P0DTD1). Description: Binding affinity to SARS-CoV-2 MPro expressed in Escherichia coli BL21(DE3) assessed as mass shift at 15 uM incubated for 4 hrs by mass spectrometry analysis.
For series [29] the target is unchanged. Description: Inhibition of SARS-CoV-2 MPro expressed in Escherichia coli BL21(DE3) using Dabcyl-KLSAVLQSGERKM-Edans as substrate assessed as Kinact/Ki measured for 30 mins by fluorimetry based microplate reader analysis.
The nature of series [30]: Drug metabolism in normal saline assessed as conversion of closed form to open form by measuring rate constant at equilibrium at 2 mg/ml measured at 5 hrs by RP-HPLC analysis. The format is ADME. The following applies: buffer.
Series [31] deals with T1, Replicase polyprotein 1ab. Description: Inhibition of SARS-CoV-2 PLpro expressed in Escherichia coli BL21(DE3) using CBZ-RLRGG-AMC as substrate incubated for 30 mins followed by substrate addition by FRET assay.
Series [32] has as its system SARS-CoV-2. The experiment in a line: Antiviral activity against SARS-CoV-2 infected in Vero E6 cells assessed as reduction in viral nucleoprotein expression measured after 48 hrs by qRT-PCR analysis. The format is functional, organism-based. The following applies: Severe acute respiratory syndrome coronavirus 2, Vero C1008, 48 h.
The nature of series [33]: Acute toxicity in iv dosed overnight fasted Kunming mouse assessed as maximum tolerated dose measured after 15 days. The class given is organism-based. The following applies: in vivo, time 15 day.
The target in series [34] is Replicase polyprotein 1ab (Severe acute respiratory syndrome coronavirus 2) (UniProt P0DTD1). The experiment in a line: Inhibition of SARS-CoV-2 PLpro expressed in Escherichia coli BL21(DE3) using CBZ-RLRGG-AMC as substrate assessed as Kinact/Ki measured for 30 mins by fluorimetry based microplate reader analysis.
A further series relates to Vero C1008. The experiment in a line: Cytotoxicity against African green monkey Vero E6 cells infected with SARS-CoV-2 assessed as reduction in cell viability at 15 uM measured after 48 hrs by CCK-8 assay. The format is toxicity, cell-based. The following applies: chlorocebus sabaeus, vero c1008, 48 h. A general note: Tetrazolium assays rely on reduction of a dye to a coloured formazan, in cell work by metabolically active cells.

Series [35] has as its target Replicase polyprotein 1ab (Severe acute respiratory syndrome coronavirus 2) (UniProt P0DTD1). Description: Inhibition of SARS-CoV-2 PLpro expressed in Escherichia coli BL21(DE3) using CBZ-RLRGG-AMC as substrate assessed as inactivation constant measured for 30 mins by fluorimetry based microplate reader analysis.
Series [36] deals with T3, Cathepsin B. The experiment in a line: Reversible inhibition of His-tagged recombinant human Cathepsin B expressed in HEK293 cells using Z-Leu-Arg-AMC as substrate at 120 nM incubated for 2.5 hrs followed by 100 fold dilution and incubated for 5 min and further incubated with substrate by fluorescence based analysis. The following applies: time 155.0 min.
The target of series [37] is Replicase polyprotein 1ab (Severe acute respiratory syndrome coronavirus 2) (UniProt P0DTD1). Description: Covalent binding affinity to Cys111 residue of SARS-CoV-2 PLpro expressed in Escherichia coli BL21(DE3) assessed as mass shift at 3 to 15 uM incubated for 4 hrs followed by trypsin digestion by mass spectrometry analysis. The following applies: dose 3-15 µM.
The target in series [38] is T1, Replicase polyprotein 1ab. The experiment in a line: Inhibition of SARS-CoV-2 PLpro.

Turning to `CC(C)C[C@H](NC(=O)[C@@H](NC(=O)OCc1ccccc1)C(C)C)C(=O)N[C@@H](C[C@@H]1CCNC1=O)C(=O)c1nc2ccccc2s1`, affinity in series [1] was put at a Ki of 0.0145 µM.

With `Cl.O=C1C=C(Nc2ccccc2N2CCNCC2)C2=NS(=O)(=O)c3cccc1c32`, the IC50 in series [2] amounted to 0.12 µM; at Procathepsin L [12] it was 2.2 µM; on Cathepsin B [18], 8.8 µM; in series [31], 0.99 µM; in the series on SARS-CoV-2 [32] it was 3.9 µM. Moreover, the Activity result in series [3] is “Non-Toxic”; in series [9], “Non-Toxic”; in [10] it was “Toxic”; in [11] it was 410 Da; in series [14], “Non-Toxic”; in series [15], “Non-Toxic”. In addition, the Activity in the series with SARS-CoV-2 [19] is 99.9%; in series [20], “Non-Toxic”; in series [22], “Non-Toxic”; in series [23], “Non-Toxic”; in series [27], “Non-Toxic”; in series [28], 392 Da. The Activity entry with Vero C1008 was “Non-Toxic”. The solubility entry in series [4] was “Insoluble”. In series [5], the MLC was 1300 mg/kg. The Kinact in series [6] is 0.0048 s⁻¹; in series [35], 0.0081 s⁻¹. Further, the inhibition in series [7] came out at 10%; in [24], 35%. For the same molecule, the inhibition result (on Procathepsin L [8]; in series [16]; in series [26]; at Cathepsin B [36]) was “Active” in each case. Besides, the outcome (in series [13]; with SARS-CoV-2 [21]; in [37]) was Active. Besides, the Ki worked out at 16 µM in series [17] and 7.1 µM in series [25]. For the same molecule, the Ratio in series [29] was 710 M⁻¹ s⁻¹; in [34], 500 M⁻¹ s⁻¹. Moreover, the Ke in [30] came out at 0.012 min⁻¹. The MTD at 360 h in series [33] was determined as 1000 mg/kg.

Take `CNS(=O)(=O)c1cccc2c1C(=O)C(Nc1ccccc1)=CC2=O`: the inhibition entry in [16] is “Active”.

`CC1=NC2C(=O)C(Nc3ccc(C)cc3)=CC(=O)C2S1` (stereo unspecified) registered a 50% inhibitory concentration (IC50) in [38] of 0.39 µM.

In series [38], `COC(=O)/C=C/C(=O)NNC(=O)/C=C/c1ccccc1C(=O)N[C@H](C)c1cccc2ccccc12` came in with an IC50 of 0.094 µM.
